US8658416B2, “Toxin-eating bacteria and bioremediation” (priority 2008, dated 2014)

What was measured:
[1] = Un-inoculated media controls monitored by HPLC (antibiotic stability in SCS medium); assay type: physicochemical; settings: 20 or 28 days, HPLC at 214 nm
Protocol: Representative isolates capable of growth on penicillin and carbenicillin as sole carbon source were selected for analysis of antibiotic removal from the growth media by High Performance Liquid Chromatography (HPLC). 2 μL of these cultures were re-inoculated into fresh SCS-antibiotic medium (5 mL) and allowed to grow for 28 days. Samples of the cultures and un-inoculated media controls were taken at regular intervals throughout the 28 day period and the catabolism of penicillin and carbenicillin was monitored at 214 nm by HPLC of filtered media from samples using a Hewlett Packard 1090 Liquid Chromatograph and a Vydac C-18 column. HPLC was performed at a flow rate of 0.3 mL/min with an acetonitrile gradient going from 5% to 65% in 30 minutes in the presence of 0.1% trifluoroacetic acid.

[2] = test system: clonal bacterial isolates from 11 diverse soils; assay type: cell-based, soil bacteria; settings: antibiotic as sole carbon source at 1 g/L in SCS media pH 5.5, 22° C., positive growth at least 10^8 cells/mL
Protocol: The pH was adjusted to 5.5 using HCl, and the media was sterilized through a 0.22 μm filter. Solid medium was prepared by adding 15 g agar per liter of liquid SCS media followed by autoclaving before adding antibiotics.
Clonal isolates from the liquid cultures were obtained by plating cultures out on SCS-antibiotic agar medium and resulting single colonies were picked and re-streaked on corresponding plates. Three colonies each were then inoculated into fresh SCS-antibiotic liquid media (5 mL) to confirm clonal phenotype. Final culture growth was recorded after 1 month incubation without shaking at 22° C. and cultures with at least 10^8 cells/mL were assayed as positive growth.
All antibiotics used were purchased from Sigma-Aldrich at the highest purities available.

Row | Compound | antibiotic peak in the un-inoculated control over the same time course [1] | soils from which clonal isolates capable of subsisting on the antibiotic were obtained [2]
1 | CC1(C)S[C@@H]2[C@H](NC(=O)C(C(=O)O)c3ccccc3)C(=O)N2[C@H]1C(=O)O (stereo partly drawn) [carbenicillin, Carbenicillin] | remained relatively unchanged | all the soils tested
2 | Cc1onc(-c2c(Cl)cccc2Cl)c1C(=O)N[C@@H]1C(=O)N2[C@@H]1SC(C)(C)[C@@H]2C(=O)O [dicloxacillin, Dicloxacillin] |  | 9 out of 11 soils
3 | CCn1cc(C(=O)O)c(=O)c2ccc(C)nc21 [nalidixic acid, Nalidixic acid] |  | a majority of the soils
4 | CC1(C)S[C@@H]2[C@H](NC(=O)Cc3ccccc3)C(=O)N2[C@H]1C(=O)O [penicillin, Penicillin G] | remained the dominant peak | all the soils tested
